PMC10746543, “Design principles for cyclin K molecular glue degraders” (Nature Chemical Biology, 2023)
Where “and” joins values, the source holds several entries; their conditions need not be identical. Equal entries are not always repeated. Where two headings read alike, the source gives them in different places.

Assays:
[1] = target: T1, CDK12–cyclin K and DDB1 (Homo sapiens, UniProt Q16531+Q9NYV4, K965R); test: TR-FRET ternary complex formation assay (compound titration); type: binding; details: for TR-FRET signal at compound concentration: replicate titrations
T1 construct: His6–CDK12 (a.a. 713–1,052); full-length or beta-propeller B domain deletion (ΔBPB: a.a. 396–705 deleted) constructs of His6–DDB1ΔBPB, StrepII–Avi–DDB1, or His6–Spy–DDB1; made in house; host or cells: Trichoplusia ni High Five insect cells (baculovirus)
Text: A 70 μs delay was employed to reduce background fluorescence. The TR-FRET signal was obtained through calculating the ratio of 520 nm to 490 nm fluorescence, and Prism 9 (GraphPad) was used for further data analysis.

[2] = tested on: cyclin K–eGFP degradation reporter; test: Cyclin K reporter stability analysis (dual-color cyclin K–eGFP reporter); type: cell-based, human
Description: HEK293T–Cas9 cells expressing the cyclin K–eGFP degradation reporter were resuspended at 1 × 10^6 ml^−1 and 50 µl of cell suspension was seeded in non-cell-culture-treated 384-well plates. Shortly after, cells were treated with drug or DMSO for 5 h. […] The fluorescent signal was quantified by flow cytometry (LSRFortessa flow cytometer, BD Biosciences). Using FlowJo (flow cytometry analysis software, BD Biosciences), the geometric mean of the eGFP and mCherry fluorescent signal for round and mCherry-positive cells was calculated. The ratio of eGFP to mCherry was normalized to the average of three DMSO-treated controls.

[3] = tested on: HEK293T cells; test: Drug sensitivity assay (CellTiter-Glo viability) with or without MLN4924 pretreatment; type: cell-based, human; details: Supplementary Table 2; for EC50: Homo sapiens, HEK-293T, HEK293T viability, 72 h, compound alone, read-out: Cellular assays EC50; for Toxicity rescue: MLN4924-mediated cytotoxicity rescue, 10 µM used where n.d.
Description: HEK293T–Cas9 cells were resuspended at 0.15 × 10^6 ml^−1 treated with DMSO or 100 nM MLN4924 and plated on 384-well plates. After 2 h, the indicated drugs were dispensed with a D300 digital dispenser (Tecan). After 3 days of drug exposure, cell viability was assessed using the CellTiter-Glo luminescent assay (Promega, G7572) on an CLARIOstar Plus, MARS 3.4 (BMG LabTech). Cell viabilities were calculated relative to DMSO controls.

[4] = Supplementary Table 2, read-out: TR-FRET EC50 TR-FRET
[5] = in vitro complex formation, 50 nM CDK12–cyclin K, 100 nM DDB1, text and figures, read-out: TR-FRET EC50
[6] = sheet MOESM7, read-out: log TR-FRET EC50 (converted)
[7] = Supplementary Table 2, HEK293T cycK-eGFP reporter, 5 h, read-out: Cellular assays DC50
[8] = compound concentration 79.2001 nM
[9] = compound concentration 158.4 nM
[10] = compound concentration 309.6 nM
[11] = compound concentration 626.401 nM
[12] = compound concentration 1252.8 nM
[13] = compound concentration 9936.01 nM
[14] = compound concentration 20016 nM

T1 sequence (Q9NYV4 713-1052 K965R): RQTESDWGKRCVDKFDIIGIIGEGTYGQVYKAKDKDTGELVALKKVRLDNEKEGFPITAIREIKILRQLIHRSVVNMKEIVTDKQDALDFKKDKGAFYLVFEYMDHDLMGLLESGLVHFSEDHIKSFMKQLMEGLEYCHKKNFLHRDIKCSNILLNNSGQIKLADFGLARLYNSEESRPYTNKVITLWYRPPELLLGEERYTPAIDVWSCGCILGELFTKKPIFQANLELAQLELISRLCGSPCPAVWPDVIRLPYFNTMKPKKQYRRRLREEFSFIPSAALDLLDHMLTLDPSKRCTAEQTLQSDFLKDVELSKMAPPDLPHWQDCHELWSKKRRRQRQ
T1 sequence (O75909 1-267 partner): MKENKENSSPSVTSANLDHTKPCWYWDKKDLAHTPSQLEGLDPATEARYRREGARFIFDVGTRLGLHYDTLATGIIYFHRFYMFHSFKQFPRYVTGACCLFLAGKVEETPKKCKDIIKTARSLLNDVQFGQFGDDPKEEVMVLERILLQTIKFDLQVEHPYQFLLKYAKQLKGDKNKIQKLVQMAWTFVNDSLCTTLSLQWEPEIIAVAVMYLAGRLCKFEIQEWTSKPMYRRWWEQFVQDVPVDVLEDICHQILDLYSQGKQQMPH
T1 sequence (Q16531 whole entry): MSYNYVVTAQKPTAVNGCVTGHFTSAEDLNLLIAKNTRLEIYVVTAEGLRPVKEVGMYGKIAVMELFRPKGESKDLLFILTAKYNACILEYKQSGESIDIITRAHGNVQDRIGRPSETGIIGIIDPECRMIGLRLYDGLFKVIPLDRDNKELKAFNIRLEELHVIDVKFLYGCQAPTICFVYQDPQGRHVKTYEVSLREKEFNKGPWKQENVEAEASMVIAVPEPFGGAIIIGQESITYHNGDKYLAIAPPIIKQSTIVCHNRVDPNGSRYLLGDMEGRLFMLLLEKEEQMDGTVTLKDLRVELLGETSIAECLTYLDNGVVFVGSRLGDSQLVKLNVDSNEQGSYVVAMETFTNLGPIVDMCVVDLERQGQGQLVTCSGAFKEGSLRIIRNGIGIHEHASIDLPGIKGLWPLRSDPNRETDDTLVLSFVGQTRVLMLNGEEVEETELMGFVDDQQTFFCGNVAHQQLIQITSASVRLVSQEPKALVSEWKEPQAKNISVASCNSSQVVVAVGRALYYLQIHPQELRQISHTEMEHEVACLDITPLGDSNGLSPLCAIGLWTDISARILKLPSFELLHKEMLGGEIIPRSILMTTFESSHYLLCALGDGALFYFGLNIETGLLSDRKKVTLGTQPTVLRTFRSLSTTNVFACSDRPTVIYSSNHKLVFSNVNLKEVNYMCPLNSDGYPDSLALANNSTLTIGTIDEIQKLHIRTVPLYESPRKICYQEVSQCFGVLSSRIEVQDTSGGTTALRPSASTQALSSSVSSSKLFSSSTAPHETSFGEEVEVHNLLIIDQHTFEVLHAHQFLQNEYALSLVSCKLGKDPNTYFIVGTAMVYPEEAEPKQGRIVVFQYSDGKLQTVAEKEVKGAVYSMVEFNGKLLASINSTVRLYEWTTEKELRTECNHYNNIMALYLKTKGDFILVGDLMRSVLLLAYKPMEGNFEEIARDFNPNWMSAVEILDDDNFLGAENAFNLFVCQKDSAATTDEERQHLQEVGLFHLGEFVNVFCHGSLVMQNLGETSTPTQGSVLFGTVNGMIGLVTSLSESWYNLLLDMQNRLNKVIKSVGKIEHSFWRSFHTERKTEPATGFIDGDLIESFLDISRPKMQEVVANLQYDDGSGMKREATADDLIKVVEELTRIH

SMILES | EC50 [1, 4] [nM] | EC50 [1, 5] [nM] | EC50 [1, 6] [nM] | DC50 [2, 7] [µM] | EC50 [3] [µM] | Toxicity rescue [3] [%] | TR-FRET signal at compound concentration ([1]; compound concentration 4.68 nM) | TR-FRET signal at compound concentration ([1]; compound concentration 21.6 nM) | TR-FRET signal at compound concentration ([1]; compound concentration 36 nM) | TR-FRET signal at compound concentration [1, 8] | TR-FRET signal at compound concentration [1, 9] | TR-FRET signal at compound concentration [1, 10] | TR-FRET signal at compound concentration [1, 11] | TR-FRET signal at compound concentration [1, 12] | TR-FRET signal at compound concentration ([1]; compound concentration 2448 nM) | TR-FRET signal at compound concentration [1, 13] | TR-FRET signal at compound concentration [1, 14] | other results
CC[C@H](CO)Nc1nc(Nc2ccc(-c3ccccn3)cc2)c2ncn(C(C)C)c2n1 [DRF053, reference compound] | 704 | 704 ± 108 | 704 | > 10 | 1.31 | 387 |  |  |  |  |  |  |  |  |  |  |  | TR-FRET signal at compound concentration 4.68 nM ([1]; compound concentration 4.68 nM, raw replicate titration data): 0.2134 and 0.2299 and 0.1361 and 0.1347; TR-FRET signal at compound concentration 21.6 nM ([1]; compound concentration 21.6 nM, raw replicate titration data): 0.2243 and 0.2471 and 0.1497 and 0.153; TR-FRET signal at compound concentration 36 nM ([1]; compound concentration 36 nM, raw replicate titration data): 0.2585 and 0.3171 and 0.1771 and 0.1787; TR-FRET signal at compound concentration 79.2001 nM ([1]; compound concentration 79.2001 nM, raw replicate titration data): 0.3449 and 0.4117 and 0.2284 and 0.2341; TR-FRET signal at compound concentration 158.4 nM ([1]; compound concentration 158.4 nM, raw replicate titration data): 0.4712 and 0.5868 and 0.3097 and 0.3219; TR-FRET signal at compound concentration 309.6 nM ([1]; compound concentration 309.6 nM, raw replicate titration data): 0.6548 and 0.8142 and 0.4579 and 0.474; TR-FRET signal at compound concentration 626.401 nM ([1]; compound concentration 626.401 nM, raw replicate titration data): 0.9256 and 1.1545 and 0.6903 and 0.7002; TR-FRET signal at compound concentration 1252.8 nM ([1]; compound concentration 1252.8 nM, raw replicate titration data): 1.214 and 1.445 and 0.9334 and 0.9779; TR-FRET signal at compound concentration 2448 nM ([1]; compound concentration 2448 nM, raw replicate titration data): 1.442 and 1.672 and 1.232 and 1.263; TR-FRET signal at compound concentration 9936.01 nM ([1]; compound concentration 9936.01 nM, raw replicate titration data): 1.602 and 1.881 and 1.44 and 1.453; TR-FRET signal at compound concentration 20016 nM ([1]; compound concentration 20016 nM, raw replicate titration data): 1.655 and 1.896 and 1.497 and 1.485
CC[C@H](CO)Nc1nc(NCCCCCc2ccccc2)c2ncn(C(C)C)c2n1 [DS02] |  | 285 ± 19 | 285 |  | > 10 | 0 | 0.1674 and 0.1915 | 0.2669 and 0.3147 | 0.462 and 0.5388 | 0.7422 and 0.8389 | 1.142 and 1.242 | 1.648 and 1.83 | 2.134 and 2.344 | 2.523 and 2.691 | 2.757 and 2.986 | 2.985 and 3.212 | 3.04 and 3.2335 | fold lower affinity than DS11 ([1]; TR-FRET complex formation): 5-10 fold; EC50 ([1]; source data sheet correlations, read-out: TR-FRET EC50): 285 nM; DC50 ([2]; source data sheet correlations, read-out: DC50): 1.78 µM
CCCCc1ccc(CNc2nc(N[C@H](CC)CO)nc3c2ncn3C(C)C)cc1 [DS03] | 185 | 185 ± 22 | 185 | > 10 | > 10 | 0 |  |  |  |  |  |  |  |  |  |  |  | TR-FRET signal, individual replicate ([1]; compound concentration 4.68 nM): 0.1665 and 0.1912; TR-FRET signal, individual replicate ([1]; compound concentration 21.6 nM): 0.2604 and 0.3178; TR-FRET signal, individual replicate ([1]; compound concentration 36 nM): 0.4113 and 0.4843; TR-FRET signal, individual replicate [1, 8]: 0.6704 and 0.7869; TR-FRET signal, individual replicate [1, 9]: 0.9573 and 1.072; TR-FRET signal, individual replicate [1, 10]: 1.2282 and 1.396; TR-FRET signal, individual replicate [1, 11]: 1.549 and 1.7468; TR-FRET signal, individual replicate [1, 12]: 1.782 and 2.014; TR-FRET signal, individual replicate ([1]; compound concentration 2448 nM): 1.858 and 2.0804; TR-FRET signal, individual replicate [1, 13]: 1.8943 and 2.138; TR-FRET signal, individual replicate [1, 14]: 1.837 and 2.0323
CC[C@H](CO)Nc1nc(NCc2ccc(-c3ccc(-c4ccccc4)cc3)cc2)c2ncn(C(C)C)c2n1 [DS04] |  |  |  | > 10 | > 10 | 0 | 0.1371 and 0.1443 | 0.1368 and 0.1484 | 0.135 and 0.1532 | 0.1341 and 0.1519 | 0.132 and 0.1491 | 0.1322 and 0.1487 | 0.1292 and 0.1438 | 0.1234 and 0.1372 | 0.1186 and 0.1335 | 0.1139 and 0.1272 | 0.1066 and 0.1169 | DDB1–CDK12 complex formation, result in words ([1]; in vitro TR-FRET): abolished binding
